Data on two sequences can be found in patent US20260265771A1, “METHODS OF INCREASING THE REGENERATION EFFICIENCY IN PLANTS” (Institute of Genetics and Developmental Biology Chinese …, priority 2022, published 2026).

The test system of one assay is soybean explants. The assay can be described thus: Shoot regeneration of soybean explants. It is filed as cell-based, Glycine max. The method, then: The relative regeneration capacity was represented by the relative frequency of explants with the regenerated shoots. Data are mean±SD of three independent experiments. Bars show mean±SD. ***P<0.001, **P<0.01, *P<0.05 (Student's t-test).
Soybean explants were cultured on medium containing indicated concentrations of REF1. Shoot regeneration was scored 21 days after incubation.

Assay [1] has as its system Williams 82 soybean cultivar. The assay can be described thus: Transformation efficiency of soybean (reporter gene A). It is filed as cell-based. The method, then:
By “transformation efficiency” is meant the capacity of an organism to take up and incorporate exogenous DNA such as plasmids during transformation. Transformation efficiency is calculated by dividing the number of transformants by the total number of organisms subjected to the transformation process and multiplying this by 100 to obtain a percentage.
The soybean gene A was transformed into the Williams 82 soybean cultivar and treated with 100 nM GmREF1 or a control. Gene A is a transcription factor gene which is used as a reporter for transformation efficiency. […]
A general note: Reporter assays use an easily measured gene product as a stand-in for the process of interest.

In the next assay the test system is recalcitrant soybean. The assay can be described thus: Regeneration frequency / transformation efficiency of recalcitrant soybean. It is filed as cell-based. Conditions: 100 nM GmREF1 vs control in absence of GmREF1. The method, then: (a) photos of control recalcitrant soybean and PRR+RER overexpressing (OE) recalcitrant soybean grown in the presence of 50 nM gmREF1, 100 nM GmREF1 or a vehicle only control (mock). (b) relative regeneration frequency of control recalcitrant soybean and PRR+RER overexpressing (OE) recalcitrant soybean grown in the presence of 50 nM GmREF1, 100 nM GmREF1 or a absence of REF1 (mock).

For another assay, the system named is cucumber leaf explants. Put plainly: Shoot regeneration of cucumber leaf explants. It is filed as cell-based. Conditions: 10 nM CsREF1 vs untreated control explants, 21 d. The method, then: FIG. 46—Leaf explants were cultured on medium containing indicated concentrations of CsREF1. Shoot regeneration was scored at 21 d after incubation. The shoot regenerative capacity was represented by the number of regenerated shoots per explant. Data are mean±SD of three independent experiments. Bars show mean±SD. ***P<0.001, **P<0.01, *P<0.05 (Student's t-test).
Leaf explants were cultured on a medium containing 10 nM CsREF1.

The mark [2] stands for this setting: 100 nM GmREF1, three experiments.

Several values for one entry are separate records, joined by “and”; a condition that tells them apart may be missing. Equal values may be shown once. Entries after “also recorded” stand apart in the source; their conditions may differ.

“GSVVVLQTKRKHDGGKGRDPQTN (Glycine max) [GmREF1]”: the “relative regeneration frequency, increase” value in the assay on soybean explants (10 nM GmREF1 vs absence) is recorded as ~ 2.1 fold; with soybean explants (20 nM GmREF1 vs absence), ~ 2.8 fold; in the assay on soybean explants (50 nM GmREF1 vs absence) it was ~ 3.8 fold. Moreover, the “shoot regeneration / regenerative capacity” value in the assay on soybean explants (presence vs absence of GmREF1) is on record as “increases the regenerative capacity; also recorded: promotes shoot regeneration”. Moreover, in assay [1] (setting [2]), the “Regenerated shoots carrying the reporter gene” value is 177 and 156 and 200. Also, in assay [1] (setting [2]), the “Transformation efficiency (%)” value is 64.1% and 73.9% and 72.9%. Moreover, the transformation efficiency result in assay [1] (100 nM GmREF1 vs control) is “improves transformation efficiency; also recorded: greater”. The “regeneration frequency, increase” value in the assay with recalcitrant soybean was ~ 12 fold.

For the sequence “YKLEGELQKRFEDLLKTTTDNDIPRGGNY (listed as Cucumis sativus) [CsREF1]”, the shoot regenerative capacity result in the assay with cucumber leaf explants is “significantly increased”.
